This is an account of results in patent publication US9340590B2 (priority 2011, dated 2016).

Each structure is given as a SMILES string. Positions of bridges follow the written chain, without caps; N, C: chain ends. Non-standard residues stand in square brackets, D forms with d. Residues, ends and D or L forms follow the SMILES beside them. Phe(4-tBu) = CC(C)(C)c1ccc(C[C@H](N)C(=O)O)cc1; Phe(2-Cl) = N[C@@H](Cc1ccccc1Cl)C(=O)O; Phe(4-F) = N[C@@H](Cc1ccc(F)cc1)C(=O)O; Phe(4-Me) = Cc1ccc(C[C@H](N)C(=O)O)cc1; NMeF = CN[C@@H](Cc1ccccc1)C(=O)O; NMeL = CN[C@@H](CC(C)C)C(=O)O; NMeV = CN[C@H](C(=O)O)C(C)C

Common to all, as to assay: cell-based
The target of one test is hNav1.7 (Homo sapiens, UniProt Q15858). It is filed as cell-based. Conditions: IonWorks Quattro, use-dependent protocol, hNav1.7; read-out: IWQ Use Nav1.7. (In general: Patch clamp records ionic current or voltage across a cell membrane.)
The next test has as its target hNav1.5 (Homo sapiens, UniProt Q14524). As to conditions: IonWorks Quattro, use-dependent protocol, hNav1.5; read-out: IWQ Use Nav1.5.
The target of a further test is hNav1.3 (Homo sapiens, UniProt Q9NY46). As to conditions: IonWorks Quattro, use-dependent protocol, hNav1.3; read-out: IWQ Use Nav1.3.
Sequence of hNav1.3 (Q9NY46 whole entry, looked up): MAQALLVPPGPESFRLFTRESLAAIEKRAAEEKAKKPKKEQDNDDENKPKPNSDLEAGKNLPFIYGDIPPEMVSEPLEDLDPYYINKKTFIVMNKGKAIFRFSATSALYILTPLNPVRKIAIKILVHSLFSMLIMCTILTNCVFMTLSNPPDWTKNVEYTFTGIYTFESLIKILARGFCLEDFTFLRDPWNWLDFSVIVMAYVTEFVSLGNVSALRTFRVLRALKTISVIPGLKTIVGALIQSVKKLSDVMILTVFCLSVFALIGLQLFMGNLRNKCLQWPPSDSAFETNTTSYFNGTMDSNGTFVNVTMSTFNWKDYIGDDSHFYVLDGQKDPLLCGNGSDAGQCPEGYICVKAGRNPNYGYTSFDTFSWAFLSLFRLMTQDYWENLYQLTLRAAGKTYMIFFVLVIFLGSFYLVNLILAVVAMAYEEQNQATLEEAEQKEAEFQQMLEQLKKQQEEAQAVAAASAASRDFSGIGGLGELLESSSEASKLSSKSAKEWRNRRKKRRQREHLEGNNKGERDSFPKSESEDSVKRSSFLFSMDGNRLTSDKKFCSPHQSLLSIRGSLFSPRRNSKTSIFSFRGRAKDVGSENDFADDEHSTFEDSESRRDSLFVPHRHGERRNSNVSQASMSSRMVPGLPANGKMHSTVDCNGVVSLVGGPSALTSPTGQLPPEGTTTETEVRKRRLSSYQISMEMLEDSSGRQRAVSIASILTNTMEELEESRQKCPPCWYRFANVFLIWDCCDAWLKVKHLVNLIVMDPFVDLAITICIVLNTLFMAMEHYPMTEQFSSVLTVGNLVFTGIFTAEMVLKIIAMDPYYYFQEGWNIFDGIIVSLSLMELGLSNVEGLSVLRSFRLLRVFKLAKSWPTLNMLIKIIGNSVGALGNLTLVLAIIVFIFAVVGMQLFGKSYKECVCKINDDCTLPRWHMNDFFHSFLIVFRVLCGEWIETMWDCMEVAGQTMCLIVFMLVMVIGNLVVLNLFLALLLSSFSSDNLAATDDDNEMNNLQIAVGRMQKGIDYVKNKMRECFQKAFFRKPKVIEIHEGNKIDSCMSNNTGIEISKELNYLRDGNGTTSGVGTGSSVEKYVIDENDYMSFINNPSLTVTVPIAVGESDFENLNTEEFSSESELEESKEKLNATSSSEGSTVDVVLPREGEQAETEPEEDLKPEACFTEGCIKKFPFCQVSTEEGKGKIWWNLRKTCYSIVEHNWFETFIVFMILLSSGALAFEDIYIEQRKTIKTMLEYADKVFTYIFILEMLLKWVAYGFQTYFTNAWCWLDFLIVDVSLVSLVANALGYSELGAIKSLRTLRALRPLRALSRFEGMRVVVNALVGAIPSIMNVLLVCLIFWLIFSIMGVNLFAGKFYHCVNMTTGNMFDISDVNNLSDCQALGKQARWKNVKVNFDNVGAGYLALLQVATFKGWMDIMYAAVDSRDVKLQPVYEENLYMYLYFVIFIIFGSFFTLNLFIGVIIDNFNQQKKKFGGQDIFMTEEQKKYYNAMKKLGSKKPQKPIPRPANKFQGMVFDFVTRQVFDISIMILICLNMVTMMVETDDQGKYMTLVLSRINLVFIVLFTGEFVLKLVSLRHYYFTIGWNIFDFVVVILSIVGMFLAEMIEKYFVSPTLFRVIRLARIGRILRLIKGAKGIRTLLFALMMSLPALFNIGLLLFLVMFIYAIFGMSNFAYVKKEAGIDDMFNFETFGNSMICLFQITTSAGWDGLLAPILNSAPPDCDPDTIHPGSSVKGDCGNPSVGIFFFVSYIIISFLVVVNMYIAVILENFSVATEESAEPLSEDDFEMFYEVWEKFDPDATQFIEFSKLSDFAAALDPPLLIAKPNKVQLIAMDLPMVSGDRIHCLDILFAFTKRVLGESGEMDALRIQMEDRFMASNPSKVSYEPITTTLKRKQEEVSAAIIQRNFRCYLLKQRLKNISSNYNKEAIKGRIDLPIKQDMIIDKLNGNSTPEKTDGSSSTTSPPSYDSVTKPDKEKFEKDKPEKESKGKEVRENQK

Sequence of hNav1.7 (Q15858 whole entry, looked up): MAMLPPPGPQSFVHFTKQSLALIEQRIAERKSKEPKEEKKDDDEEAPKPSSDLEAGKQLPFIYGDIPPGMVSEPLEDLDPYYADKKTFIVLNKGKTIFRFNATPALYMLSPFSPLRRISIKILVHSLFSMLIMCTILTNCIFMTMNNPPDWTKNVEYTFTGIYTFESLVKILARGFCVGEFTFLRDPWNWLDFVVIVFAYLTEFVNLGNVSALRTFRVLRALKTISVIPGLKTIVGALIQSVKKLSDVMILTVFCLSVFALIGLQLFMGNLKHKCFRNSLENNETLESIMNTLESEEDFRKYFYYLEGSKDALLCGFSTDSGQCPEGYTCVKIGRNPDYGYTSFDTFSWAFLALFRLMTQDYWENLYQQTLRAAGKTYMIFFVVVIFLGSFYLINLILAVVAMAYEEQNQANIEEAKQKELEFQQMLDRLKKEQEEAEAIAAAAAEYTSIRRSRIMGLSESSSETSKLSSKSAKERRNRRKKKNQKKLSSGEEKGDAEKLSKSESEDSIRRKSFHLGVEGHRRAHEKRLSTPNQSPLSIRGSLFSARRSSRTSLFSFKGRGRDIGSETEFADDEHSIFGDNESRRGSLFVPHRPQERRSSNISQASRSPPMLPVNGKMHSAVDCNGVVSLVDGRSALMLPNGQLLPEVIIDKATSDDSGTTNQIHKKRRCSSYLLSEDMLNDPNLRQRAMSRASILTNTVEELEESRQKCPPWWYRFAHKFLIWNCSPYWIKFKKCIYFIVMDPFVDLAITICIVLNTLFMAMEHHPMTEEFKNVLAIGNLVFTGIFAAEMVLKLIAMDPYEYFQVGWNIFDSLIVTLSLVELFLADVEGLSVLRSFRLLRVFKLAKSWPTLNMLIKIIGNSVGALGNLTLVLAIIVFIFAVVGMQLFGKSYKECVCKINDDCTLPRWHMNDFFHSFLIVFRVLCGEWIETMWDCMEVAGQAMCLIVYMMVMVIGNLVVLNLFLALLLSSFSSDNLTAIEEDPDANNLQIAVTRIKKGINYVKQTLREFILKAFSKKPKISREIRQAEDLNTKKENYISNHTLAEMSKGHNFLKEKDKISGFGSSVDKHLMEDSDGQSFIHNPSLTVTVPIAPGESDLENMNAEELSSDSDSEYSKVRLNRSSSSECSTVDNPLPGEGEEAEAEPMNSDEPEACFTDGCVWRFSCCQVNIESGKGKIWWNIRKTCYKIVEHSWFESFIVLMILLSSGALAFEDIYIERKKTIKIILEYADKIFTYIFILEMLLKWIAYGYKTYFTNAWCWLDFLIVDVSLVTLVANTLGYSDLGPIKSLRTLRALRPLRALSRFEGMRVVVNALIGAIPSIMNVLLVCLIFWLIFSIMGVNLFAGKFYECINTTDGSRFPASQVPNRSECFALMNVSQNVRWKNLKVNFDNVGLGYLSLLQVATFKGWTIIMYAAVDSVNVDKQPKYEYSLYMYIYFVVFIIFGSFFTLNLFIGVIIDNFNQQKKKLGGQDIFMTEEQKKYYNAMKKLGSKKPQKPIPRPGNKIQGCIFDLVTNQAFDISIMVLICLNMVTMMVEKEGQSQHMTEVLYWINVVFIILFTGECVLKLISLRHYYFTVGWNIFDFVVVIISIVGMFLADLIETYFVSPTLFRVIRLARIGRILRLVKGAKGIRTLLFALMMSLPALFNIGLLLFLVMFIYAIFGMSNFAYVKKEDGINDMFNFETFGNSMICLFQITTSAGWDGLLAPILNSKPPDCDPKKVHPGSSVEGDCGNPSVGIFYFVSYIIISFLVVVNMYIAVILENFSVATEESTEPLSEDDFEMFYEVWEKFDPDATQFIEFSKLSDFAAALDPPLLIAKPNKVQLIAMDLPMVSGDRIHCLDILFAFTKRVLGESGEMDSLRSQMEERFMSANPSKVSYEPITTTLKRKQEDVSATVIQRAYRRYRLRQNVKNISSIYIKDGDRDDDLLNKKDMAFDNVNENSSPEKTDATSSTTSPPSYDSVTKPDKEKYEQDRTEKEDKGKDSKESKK

On to `CC[C@H](C)[C@@H]1NC(=O)[C@@H]2CSSC[C@@H]3NC(=O)[C@H](C(C)C)NC(=O)[C@H](CC(C)C)NC(=O)[C@H](CC(N)=O)NC(=O)[C@@H]4CCCN4C(=O)[C@H](CCCNC(=N)N)NC(=O)[C@H](CSSC[C@H](NC(=O)[C@@H](N)CC(=O)O)C(=O)N[C@@H](CC(C)C)C(=O)NCC(=O)N[C@@H](Cc4ccc(F)cc4)C(=O)N[C@@H](Cc4ccccc4)C(=O)N[C@@H](CCCNC(=N)N)C(=O)N[C@@H](CCCCN)C(=O)N2)NC(=O)[C@H](CSSC[C@@H](C(=O)N[C@@H](CCCCN)C(=O)N[C@@H](Cc2ccc(O)cc2)C(=O)N[C@H](C(=O)N[C@@H](Cc2ccccc2)C(N)=O)C(C)C)NC(=O)[C@H](Cc2c[nH]c4ccccc24)NC(=O)[C@H](CCCCN)NC(=O)[C@H](Cc2c[nH]cn2)NC(=O)[C@H]([C@@H](C)O)NC(=O)[C@H](CCCNC(=N)N)NC(=O)[C@H](CO)NC3=O)NC(=O)[C@H](CCCCN)NC(=O)[C@H](CC(=O)O)NC(=O)[C@H](CC(N)=O)NC(=O)[C@H](CC(=O)O)NC(=O)[C@@H]2CCCN2C1=O` [compound 624] (H-DCLG[Phe(4-F)]FRKCIPDNDKCCRPNLVCSRTHKWCKYVF-NH2; disulfide 2-17, 9-23, 16-30), for which the IC50 on hNav1.7 worked out at 0.06 µM; on hNav1.5, 11.7 µM; on hNav1.3, 0.02 µM.

`CC[C@H](C)[C@@H]1NC(=O)[C@@H]2CSSC[C@@H]3NC(=O)[C@H](C(C)C)NC(=O)[C@H](CC(C)C)NC(=O)[C@H](CC(N)=O)NC(=O)[C@@H]4CCCN4C(=O)[C@H](CCCNC(=N)N)NC(=O)[C@H](CSSC[C@H](NC(=O)[C@@H](N)CC(=O)O)C(=O)N[C@@H](CC(C)C)C(=O)NCC(=O)N[C@@H](Cc4ccc(C)cc4)C(=O)N[C@@H](Cc4ccccc4)C(=O)N[C@@H](CCCNC(=N)N)C(=O)N[C@@H](CCCCN)C(=O)N2)NC(=O)[C@H](CSSC[C@@H](C(=O)N[C@@H](CCCCN)C(=O)N[C@@H](Cc2ccc(O)cc2)C(=O)N[C@H](C(=O)N[C@@H](Cc2ccccc2)C(N)=O)C(C)C)NC(=O)[C@H](Cc2c[nH]c4ccccc24)NC(=O)[C@H](CCCCN)NC(=O)[C@H](Cc2c[nH]cn2)NC(=O)[C@H]([C@@H](C)O)NC(=O)[C@H](CCCNC(=N)N)NC(=O)[C@H](CO)NC3=O)NC(=O)[C@H](CCCCN)NC(=O)[C@H](CC(=O)O)NC(=O)[C@H](CC(N)=O)NC(=O)[C@H](CC(=O)O)NC(=O)[C@@H]2CCCN2C1=O` [compound 625] (H-DCLG[Phe(4-Me)]FRKCIPDNDKCCRPNLVCSRTHKWCKYVF-NH2; disulfide 2-17, 9-23, 16-30): the IC50 on hNav1.7 turned out to be 0.063 µM; at hNav1.5 it was 6.5 µM; on hNav1.3, 0.051 µM.

`CC[C@H](C)[C@@H]1NC(=O)[C@@H]2CSSC[C@@H]3NC(=O)[C@H](C(C)C)NC(=O)[C@H](CC(C)C)NC(=O)[C@H](CC(N)=O)NC(=O)[C@@H]4CCCN4C(=O)[C@H](CCCNC(=N)N)NC(=O)[C@H](CSSC[C@H](NC(=O)[C@@H](N)CC(=O)O)C(=O)N[C@@H](CC(C)C)C(=O)NCC(=O)N[C@@H](Cc4ccc(C(C)(C)C)cc4)C(=O)N[C@@H](Cc4ccccc4)C(=O)N[C@@H](CCCNC(=N)N)C(=O)N[C@@H](CCCCN)C(=O)N2)NC(=O)[C@H](CSSC[C@@H](C(=O)N[C@@H](CCCCN)C(=O)N[C@@H](Cc2ccc(O)cc2)C(=O)N[C@H](C(=O)N[C@@H](Cc2ccccc2)C(N)=O)C(C)C)NC(=O)[C@H](Cc2c[nH]c4ccccc24)NC(=O)[C@H](CCCCN)NC(=O)[C@H](Cc2c[nH]cn2)NC(=O)[C@H]([C@@H](C)O)NC(=O)[C@H](CCCNC(=N)N)NC(=O)[C@H](CO)NC3=O)NC(=O)[C@H](CCCCN)NC(=O)[C@H](CC(=O)O)NC(=O)[C@H](CC(N)=O)NC(=O)[C@H](CC(=O)O)NC(=O)[C@@H]2CCCN2C1=O` [compound 626] (H-DCLG[Phe(4-tBu)]FRKCIPDNDKCCRPNLVCSRTHKWCKYVF-NH2; disulfide 2-17, 9-23, 16-30): the IC50 stood at 0.052 µM on hNav1.7, 4.7 µM on hNav1.5 and 0.021 µM at hNav1.3.

As for `CC[C@H](C)[C@@H]1NC(=O)[C@@H]2CSSC[C@@H]3NC(=O)[C@H](C(C)C)NC(=O)[C@H](CC(C)C)NC(=O)[C@H](CC(N)=O)NC(=O)[C@@H]4CCCN4C(=O)[C@H](CCCNC(=N)N)NC(=O)[C@H](CSSC[C@H](NC(=O)[C@@H](N)CC(=O)O)C(=O)N[C@@H](CC(C)C)C(=O)NCC(=O)N(C)[C@@H](C(C)C)C(=O)N[C@@H](Cc4ccccc4)C(=O)N[C@@H](CCCNC(=N)N)C(=O)N[C@@H](CCCCN)C(=O)N2)NC(=O)[C@H](CSSC[C@@H](C(=O)N[C@@H](CCCCN)C(=O)N[C@@H](Cc2ccc(O)cc2)C(=O)N[C@H](C(=O)N[C@@H](Cc2ccccc2)C(N)=O)C(C)C)NC(=O)[C@H](Cc2c[nH]c4ccccc24)NC(=O)[C@H](CCCCN)NC(=O)[C@H](Cc2c[nH]cn2)NC(=O)[C@H]([C@@H](C)O)NC(=O)[C@H](CCCNC(=N)N)NC(=O)[C@H](CO)NC3=O)NC(=O)[C@H](CCCCN)NC(=O)[C@H](CC(=O)O)NC(=O)[C@H](CC(N)=O)NC(=O)[C@H](CC(=O)O)NC(=O)[C@@H]2CCCN2C1=O` [compound 627] (H-DCLG[NMeV]FRKCIPDNDKCCRPNLVCSRTHKWCKYVF-NH2; disulfide 2-17, 9-23, 16-30), the IC50 at hNav1.7 came to 0.19 µM; on hNav1.5 it was 6 µM; at hNav1.3, 0.25 µM.

As to `CC[C@H](C)[C@@H]1NC(=O)[C@@H]2CSSC[C@@H]3NC(=O)[C@H](C(C)C)NC(=O)[C@H](CC(C)C)NC(=O)[C@H](CC(N)=O)NC(=O)[C@@H]4CCCN4C(=O)[C@H](CCCNC(=N)N)NC(=O)[C@H](CSSC[C@H](NC(=O)[C@@H](N)CC(=O)O)C(=O)N[C@@H](CC(C)C)C(=O)NCC(=O)N(C)[C@@H](CC(C)C)C(=O)N[C@@H](Cc4ccccc4)C(=O)N[C@@H](CCCNC(=N)N)C(=O)N[C@@H](CCCCN)C(=O)N2)NC(=O)[C@H](CSSC[C@@H](C(=O)N[C@@H](CCCCN)C(=O)N[C@@H](Cc2ccc(O)cc2)C(=O)N[C@H](C(=O)N[C@@H](Cc2ccccc2)C(N)=O)C(C)C)NC(=O)[C@H](Cc2c[nH]c4ccccc24)NC(=O)[C@H](CCCCN)NC(=O)[C@H](Cc2c[nH]cn2)NC(=O)[C@H]([C@@H](C)O)NC(=O)[C@H](CCCNC(=N)N)NC(=O)[C@H](CO)NC3=O)NC(=O)[C@H](CCCCN)NC(=O)[C@H](CC(=O)O)NC(=O)[C@H](CC(N)=O)NC(=O)[C@H](CC(=O)O)NC(=O)[C@@H]2CCCN2C1=O` [compound 628] (H-DCLG[NMeL]FRKCIPDNDKCCRPNLVCSRTHKWCKYVF-NH2; disulfide 2-17, 9-23, 16-30), the IC50 amounted to 0.076 µM on hNav1.7, 8.4 µM at hNav1.5 and 0.091 µM on hNav1.3.

Turning to `CC[C@H](C)[C@@H]1NC(=O)[C@@H]2CSSC[C@@H]3NC(=O)[C@H](C(C)C)NC(=O)[C@H](CC(C)C)NC(=O)[C@H](CC(N)=O)NC(=O)[C@@H]4CCCN4C(=O)[C@H](CCCNC(=N)N)NC(=O)[C@H](CSSC[C@H](NC(=O)[C@@H](N)CC(=O)O)C(=O)N[C@@H](CC(C)C)C(=O)NCC(=O)N(C)[C@@H](Cc4ccccc4)C(=O)N[C@@H](Cc4ccccc4)C(=O)N[C@@H](CCCNC(=N)N)C(=O)N[C@@H](CCCCN)C(=O)N2)NC(=O)[C@H](CSSC[C@@H](C(=O)N[C@@H](CCCCN)C(=O)N[C@@H](Cc2ccc(O)cc2)C(=O)N[C@H](C(=O)N[C@@H](Cc2ccccc2)C(N)=O)C(C)C)NC(=O)[C@H](Cc2c[nH]c4ccccc24)NC(=O)[C@H](CCCCN)NC(=O)[C@H](Cc2c[nH]cn2)NC(=O)[C@H]([C@@H](C)O)NC(=O)[C@H](CCCNC(=N)N)NC(=O)[C@H](CO)NC3=O)NC(=O)[C@H](CCCCN)NC(=O)[C@H](CC(=O)O)NC(=O)[C@H](CC(N)=O)NC(=O)[C@H](CC(=O)O)NC(=O)[C@@H]2CCCN2C1=O` [compound 629] (H-DCLG[NMeF]FRKCIPDNDKCCRPNLVCSRTHKWCKYVF-NH2; disulfide 2-17, 9-23, 16-30), the IC50 on hNav1.7 turned out to be 0.077 µM; at hNav1.5 it was 13.6 µM; on hNav1.3, 0.095 µM.

Consider `CC[C@H](C)[C@@H]1NC(=O)[C@@H]2CSSC[C@@H]3NC(=O)[C@H](C(C)C)NC(=O)[C@H](CC(C)C)NC(=O)[C@H](CC(N)=O)NC(=O)[C@@H]4CCCN4C(=O)[C@H](CCCNC(=N)N)NC(=O)[C@H](CSSC[C@H](NC(=O)[C@@H](N)CC(=O)O)C(=O)N[C@@H](CC(C)C)C(=O)NCC(=O)N[C@@H](Cc4ccccc4Cl)C(=O)N[C@@H](Cc4ccccc4)C(=O)N[C@@H](CCCNC(=N)N)C(=O)N[C@@H](CCCCN)C(=O)N2)NC(=O)[C@H](CSSC[C@@H](C(=O)N[C@@H](CCCCN)C(=O)N[C@@H](Cc2ccc(O)cc2)C(=O)N[C@H](C(=O)N[C@@H](Cc2ccccc2)C(N)=O)C(C)C)NC(=O)[C@H](Cc2c[nH]c4ccccc24)NC(=O)[C@H](CCCCN)NC(=O)[C@H](Cc2c[nH]cn2)NC(=O)[C@H]([C@@H](C)O)NC(=O)[C@H](CCCNC(=N)N)NC(=O)[C@H](CO)NC3=O)NC(=O)[C@H](CCCCN)NC(=O)[C@H](CC(=O)O)NC(=O)[C@H](CC(N)=O)NC(=O)[C@H](CC(=O)O)NC(=O)[C@@H]2CCCN2C1=O` [compound 630] (H-DCLG[Phe(2-Cl)]FRKCIPDNDKCCRPNLVCSRTHKWCKYVF-NH2; disulfide 2-17, 9-23, 16-30), for which the IC50 came to 0.06 µM on hNav1.7, 5.8 µM at hNav1.5 and 0.009 µM on hNav1.3.
